Patent publication US20250170088A1, “METHOD AND COMPOSITION FOR IMPROVING INTESTINAL MICROFLORA” (NANJING NUTRABUILDING BIO-TECH CO., LTD., priority 2022, published 2025)

What was measured:
Format in all cases: in vivo
Settings in all cases: obese mice induced by high-fat diet, 200 mg tributyrin daily, 8 weeks
Streptococcus gordonii = test: 16s rRNA sequencing of fecal samples, level of Streptococcus gordonii
Megamonas = test: 16s rRNA sequencing of fecal samples, relative abundance change of Megamonas
Lactobacillus = test: 16s rRNA sequencing of fecal samples, relative abundance change of Lactobacillus
Klebsiella = test: 16s rRNA sequencing of fecal samples, relative abundance change of Klebsiella
Akkermansia muciniphila = test: 16s rRNA sequencing of fecal samples, relative abundance change of Akkermansia muciniphila

With CCCC(=O)OCC(COC(=O)CCC)OC(=O)CCC [tributyrin, Tributyrin] the “decrease of the level of Streptococcus gordonii” value (Streptococcus gordonii) was “about 80%”, the “decrease of the level of Megamonas” value (Megamonas) was 91% and the “increase of the level of Lactobacillus” value (Lactobacillus) was 101%. The “decrease of the level of Klebsiella” value (Klebsiella) was 67% and the “increase of the level of Akkermansia muciniphila” value (Akkermansia muciniphila) was 119%.
